# Results reported in US7834174B2, “Per-6-guanidino-, alkylamino-cyclodextrins, methods of their synthesis and their use for the compaction of DNA and intercellular delivery” (priority 2004, dated 2010).
# Counter-ions that a name gives are not always drawn.
# Tests used:
# 5 kbp DNA = test: Atomic force microscopy (AFM, tapping mode) of DNA incubated with compound; settings: 5 kbp DNA incubated with compound
# Excerpt: The DNA-bguan interaction was confirmed with UV absorption spectra. The absorption maximum and the shape of the absorbance curve of DNA changed appreciably in the presence of 1 equivalent bguan, indicating a distinct change of its structure in buffer solution. In addition, when a 5 kbp DNA was examined under the atomic force microscope (AFM) in the tapping mode, nematoid (long warm-like) formations of up to 1 μm were observed. […] This actually proves that DNA compacts not in big aggregates but in nanoparticles of size suitable to cross a cell membrane.
# [1] = system: ultrapure calf thymus DNA 13 kb; test: DNA compaction: electrophoresis in agarose gel with ethidium bromide as stain; assay type: binding; settings: control substances, wells B-H and b (10 λ to 1 λ diluted 1:10)
# HeLa cells = test: Cell penetration of FITC-labeled compounds by fluorescence microscopy; assay type: cell-based, human; settings: 100 or 200 μM, 1 h incubation at 37° C.
compound,measurement,setting,value
"NCCNCC1OC2OC3C(CNCCN)OC(OC4C(CNCCN)OC(OC5C(CNCCN)OC(OC6C(CNCCN)OC(OC7C(CNCCN)OC(OC8C(CNCCN)OC(OC1C(O)C2O)C(O)C8O)C(O)C7O)C(O)C6O)C(O)C5O)C(O)C4O)C(O)C3O (stereo not drawn) [bpen, Heptakis(6-deoxy-6-aminoethylamino)-β-cyclodextrin]",elongated (nematoid) DNA forms under AFM,5 kbp DNA,complete absence of the elongated forms
same,diameter of round DNA nanoparticles,5 kbp DNA; AFM,~40 nm
N=C(N)N [guanidine hydrochloride],interaction with DNA under the electrophoresis conditions,[1],do not display any kind of interaction with DNA
OC[C@H]1O[C@@H]2O[C@H]3[C@H](O)[C@@H](O)[C@@H](O[C@H]4[C@H](O)[C@@H](O)[C@@H](O[C@H]5[C@H](O)[C@@H](O)[C@@H](O[C@H]6[C@H](O)[C@@H](O)[C@@H](O[C@H]7[C@H](O)[C@@H](O)[C@@H](O[C@H]8[C@H](O)[C@@H](O)[C@@H](O[C@H]1[C@H](O)[C@H]2O)O[C@@H]8CO)O[C@@H]7CO)O[C@@H]6CO)O[C@@H]5CO)O[C@@H]4CO)O[C@@H]3CO [β-cyclodextrin],interaction with DNA under the electrophoresis conditions,[1],do not display any kind of interaction with DNA
fluorescein isothiocyanate [treated FITC],fluorescence inside the cytoplasm,HeLa cells,did not show any fluorescence
